Experiments:
Assay type in all cases: cell-based
Nek2 protein = test: Immunoblot of Nek2 protein level in K562 cells; details: 1 μM, up to 24 hrs
Description: Immunoblot Analysis: For immunoblotting experiments, cells were plated in a 6-well culture plate and cultured overnight. Cells were incubated with the test compounds for the indicated time and whole cell lysate was harvested by adding 1×SDS-PAGE Sample Buffer (62.5 mM Tris-HCl (pH 6.8 at 25° C.), 2% w/v SDS, 10% glycerol, 50 mM DTT, and 0.01% w/v bromophenol blue or phenol red). Proteins were separated by SDS-PAGE electrophoresis and transferred to PVDF membrane. Protein expression was immunoblotted using various primary antibodies and detected using Immobilon Western Chemiluminescent HRP Substrate (Millipore, Billerica Mass. 01821 USA). Antibodies used include anti-Cleaved Caspase3, (Rabbit, Cell Signaling Technology, Danvers Mass. 01923 USA); anti-PARP (Rabbit, Cell Signaling Technology, Danvers Mass. 01923 USA); anti-MCL-1 (mouse, BD Biosciences, San Jose Calif. 95131 USA); anti-XIAP (rabbit, Cell Signaling Technology, Danvers Mass. 01923 USA); anti-Bcl-2 (mouse, Santa Cruz Biotechnology, Santa Cruz Calif. 95060); anti-Cyclin BI (mouse, BD Biosciences, San Jose Calif. 95131 USA); anti-Cyclin D1 (mouse, Santa Cruz Biotechnology, Santa Cruz Calif. 95060); Anti-Nek2 (mouse, BD Biosciences, San Jose Calif. 95131 USA); Anti-HEC1, (rabbit, GeneTex, Inc., Irvine Calif. 92606 USA); and anti-actin (mouse, Millipore, Billerica Mass. 01821 USA). […]

Hec1-Nek2 interaction = target: T1, Hec1-Nek2 interaction (Homo sapiens, UniProt O14777); test: Co-immunoprecipitation analysis of Hec1-Nek2 interaction in K562 cells; details: K562 cells treated 8 or 16 hours
T1 construct: endogenous in cells; host or cells: K562
T1 sequence (O14777 1-642): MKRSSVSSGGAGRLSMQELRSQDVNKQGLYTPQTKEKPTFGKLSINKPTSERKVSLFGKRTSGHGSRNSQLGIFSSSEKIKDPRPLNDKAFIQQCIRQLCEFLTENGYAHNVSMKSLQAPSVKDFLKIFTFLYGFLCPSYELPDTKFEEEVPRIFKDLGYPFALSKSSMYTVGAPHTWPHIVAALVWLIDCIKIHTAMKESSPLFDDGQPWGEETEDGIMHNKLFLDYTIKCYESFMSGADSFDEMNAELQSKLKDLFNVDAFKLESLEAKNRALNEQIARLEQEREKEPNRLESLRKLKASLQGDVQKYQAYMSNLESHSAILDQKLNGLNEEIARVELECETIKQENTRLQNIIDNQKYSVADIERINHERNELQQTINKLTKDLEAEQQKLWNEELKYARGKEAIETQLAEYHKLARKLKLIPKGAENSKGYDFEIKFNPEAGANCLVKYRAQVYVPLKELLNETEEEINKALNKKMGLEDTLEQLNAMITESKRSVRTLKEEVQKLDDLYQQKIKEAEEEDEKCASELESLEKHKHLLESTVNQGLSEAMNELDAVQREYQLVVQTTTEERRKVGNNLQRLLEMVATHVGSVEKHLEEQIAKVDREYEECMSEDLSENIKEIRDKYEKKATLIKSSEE
Description: Co-Immunoprecipitation Analysis: Co-immunoprecipitation (Co-IP)/Western blotting assays were performed to assess the effects of Hec1 inhibitory compounds on Hec1-Nek2 interaction. K562 cells were treated with Hec1 inhibitory compounds as indicated. After harvesting and washing once with cold PBS, cells were lysed on ice in lysis buffer (50 mM Tris (pH 7.5), 250 mM NaCl, 5 mM EDTA (pH 8.0), 0.1% NP-40, 1 mM PMSF, 50 mM NaF, and protease inhibitor cocktail (P/N P8340 Sigma Aldrich, St. Louis Mo. USA) for 30 min. Lysates were then centrifuged at 12,000 rpm at 4° C. for 20 minutes. Input supernatant was incubated in the presence of anti Nek2 antibody (rabbit anti-Nek2, Rockland Immunochemicals, Gilbertsville, Pa. 19525 USA) or IgG control antibody for 2 h at 4° C., followed by the addition protein G coupled to agarose beads (GE Healthcare, Anaheim Calif. 92805 USA). After mixing for 1 h at 4° C., the agarose beads were centrifuged at 12,000 rpm at 4° C. for 20 seconds. The beads were then washed 5 times with cold Co-IP buffer, boiled in SDS-PAGE sample buffer followed by SDS-PAGE. The presence of Hec1 and Nek2 was detected by Western blotting with mouse monoclonal antibodies directed to Hec1 (GeneTex, Inc., Irvine Calif. 92606 USA) and Nek2 (BD Biosciences, San Jose Calif. 95131 USA). […]

MDA-MB-468 = test: Antiproliferation assay (MTS), MDA-MB-468 cells; details: Homo sapiens, MDA-MB-468, 96 h, Table 1, read-out: Antiproliferative IC50 MDA-MB-468
How it was run: (§1)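 Cells seeded after overnight attachment were treated in triplicate for 96 h at 37 °C, 5% CO2, final DMSO below 1%. Viability read by MTS absorbance; concentration-response curves fitted by linear regression against DMSO controls.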

K562 = test: Antiproliferation assay (MTS), K562 cells; details: Homo sapiens, K562, 96 h, Table 1, read-out: Antiproliferative IC50 K562
How it was run: as §1

## COCCOc1cnc(Sc2cc(C)c(-c3csc(NC(=O)c4ccncc4)n3)c(C)c2)cn1 [Compound 27, N-(4-{4-(5-(2-methoxyethoxy)pyrazin-2-ylthio)-2,6-dimethylphenyl}thiazol-2-yl)isonicotinamide]
Nek2 protein
  Nek2 protein level: induced a reduction of Nek2 protein levels
Hec1-Nek2 interaction
  Hec1/Nek2 interaction (Hec1 in Nek2 immunoprecipitates): significantly disrupted Hec1/Nek2 interaction
MDA-MB-468
  IC50: 19.1 nM
K562
  IC50: 18 nM

From patent US8999983B2, “Modulators of Hec1 activity and methods therefor” (Taivex Therapeutics Corporation, priority 2011, dated 2015)
